Drawing on patent publication US20220153734A1, “Pyrazolopyridine Compounds For IRE1 Inhibition” (Optikira, LLC, priority 2019, published 2022), this text covers IC50 for seven compounds.

Experiment [1] deals with ARPE-19 cells stably expressing XBP1 (a.a. 1-376). Kind of experiment: Cellular XBP1 splicing assay (NanoLuc luciferase, thapsigargin). Format: cell-based. Conditions: Homo sapiens, ARPE-19, 4 h, thapsigargin 150 nM. In short, it runs like this:
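ARPE-19 cells carrying an XBP1(1-376)-NanoLuc splicing reporter were pretreated with compound (10-point ½-log series, 0.117% DMSO) for 30 min, then stressed with 150 nM thapsigargin for 4 h at 37° C. Luminescence was read, and IC50 values came from sigmoidal fits of percent inhibition of control.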

In experiment [2] the target is T1, IRE1α (Homo sapiens, UniProt O75460).
T1 construct: purchased Signal Chem E31-11G
T1 sequence (O75460 468-977 limits assumed): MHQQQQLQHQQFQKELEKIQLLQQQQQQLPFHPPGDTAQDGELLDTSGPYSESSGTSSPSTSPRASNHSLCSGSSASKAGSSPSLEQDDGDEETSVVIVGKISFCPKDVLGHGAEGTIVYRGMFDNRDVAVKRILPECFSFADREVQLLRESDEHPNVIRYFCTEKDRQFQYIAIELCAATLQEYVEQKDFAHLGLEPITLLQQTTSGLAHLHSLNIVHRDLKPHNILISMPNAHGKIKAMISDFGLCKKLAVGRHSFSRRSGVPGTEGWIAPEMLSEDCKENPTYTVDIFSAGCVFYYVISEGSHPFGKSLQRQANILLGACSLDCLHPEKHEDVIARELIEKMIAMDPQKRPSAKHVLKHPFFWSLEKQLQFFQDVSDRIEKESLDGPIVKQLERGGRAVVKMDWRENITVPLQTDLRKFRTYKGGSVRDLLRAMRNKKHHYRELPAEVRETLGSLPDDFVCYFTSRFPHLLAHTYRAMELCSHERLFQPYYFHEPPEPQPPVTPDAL
In words: Biochemical assay to detect inhibition of kinase activity of IRE1α (ADP-Glo). How it is done: Biochemical Assays to Detect Inhibition of Kinase Activity of IRE1α
The kinase reactions were performed in 384 well white ProxiPlate-384 Plus plates (PERKIN Elmer 6008280) using 25 mM MOPS assay buffer with 1 mM dithiothreitol, 25 mM MgCl2, 12.5 mM β-glycerophosphate, 5 mM EGTA, and 50 μg/mL BSA. Test compounds were prepared on the day of assay and dispensed using D300 digital dispenser as a 10-point ½ log dilution series in duplicate, normalized to a final DMSO concentration of 3%. Test compounds were pre-incubated for 30 min at room temperature with 10 nM IRE1α kinase (E31-11G from Signal Chem) in 2.5 μL of assay buffer and the reaction started by addition of 2.5 μL of ATP in assay buffer, to give a final ATP concentration of 100 μM and 5 nM IRE1α kinase. After 4 hours incubation at room temperature the reactions were stopped and the kinase activity determined using the ADP-Glo™ reagent from Promega, according to the manufacturer's instructions. Luminescence was measured on a luminometer (EnVision, PerkinElmer) and IC50 values calculated by fitting a sigmoidal curve to percent inhibition of control versus Log10 of compound concentration.

Experiment [3] deals with T1, IRE1α. In words: Biochemical assay: inhibition of RNase activity of IRE1α. Conditions: enzyme 0.325 nM, substrate 100 nM, 20 minutes. The procedure, abridged: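 Recombinant IRE1α (0.325 nM final) pre-incubated 30 min at room temperature with compounds (10-point ½-log series, duplicate, 4% DMSO final). Then 100 nM fluorophore/quencher-labelled RNA substrate added in 50 mM Tris, 0.5 mM MgCl2, 10 mM KCl, 2 mM DTT. Urea stop after 20 min; fluorescence read; IC50 from sigmoidal fit.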

Structures are written as SMILES. pIC50: −log10 of the molar value.

Regarding `CC(C)n1nc(-c2cc(F)c(NS(=O)(=O)Cc3ccccc3F)cc2F)c2c(N)ncc([C@H]3CC[C@H](NC4COC4)CC3)c21` [Compound A48, N-(4-(4-amino-1-isopropyl-7-((1r,4r)-4-(oxetan-3-ylamino)cyclohexyl)-1H-pyrazolo[4,3-c]pyridin-3-yl)-2,5-difluorophenyl)-1-(2-fluorophenyl)methanesulfonamide], the pIC50 (commonly the negative decadic logarithm of the IC50, by convention in mol/L) in experiment [1] was 8.19; against IRE1α [2], 8.80; at IRE1α [3] it was 8.72.
For `CC(C)n1nc(-c2cc(F)c(NS(=O)(=O)c3ccccc3Cl)cc2F)c2c(N)ncc([C@H]3CC[C@H](NC4COC4)CC3)c21` [Compound A49, N-(4-(4-amino-1-isopropyl-7-((1r,4r)-4-(oxetan-3-ylamino)cyclohexyl)-1H-pyrazolo[4,3-c]pyridin-3-yl)-2,5-difluorophenyl)-2-chlorobenzenesulfonamide], in that order: 8.37, 8.68 and 8.22.
As for `CC(C)n1nc(-c2cc(F)c(NS(=O)(=O)c3ccccc3F)cc2F)c2c(N)ncc([C@H]3CC[C@H](NC4COC4)CC3)c21` [Compound A50, N-(4-(4-amino-1-isopropyl-7-((1r,4r)-4-(oxetan-3-ylamino)cyclohexyl)-1H-pyrazolo[4,3-c]pyridin-3-yl)-2,5-difluorophenyl)-2-fluorobenzenesulfonamide], the pIC50 was 7.77 in experiment [1], 8.48 against IRE1α [2] and 8.16 against IRE1α [3].
As to `CC(C)n1nc(-c2ccc(NS(=O)(=O)Cc3ccccc3Cl)c(F)c2)c2c(N)ncc([C@H]3CC[C@H](N(C)C)CC3)c21` [Compound A51, N-(4-(4-amino-7-((1r,4r)-4-(dimethylamino)cyclohexyl)-1-isopropyl-1H-pyrazolo[4,3-c]pyridin-3-yl)-2-difluorophenyl)-1-(2-chlorophenyl)methanesulfonamide], the negative-log IC50 (pIC50) is 8.70 in experiment [1], 8.57 against IRE1α [2] and 9.30 against IRE1α [3].
For `CCn1nc(-c2ccc(NS(=O)(=O)c3ccccc3Cl)c(F)c2)c2c(N)ncc([C@H]3CC[C@H](NC4COC4)CC3)c21` [Compound A52, N-(4-(4-amino-1-ethyl-7-((1r,4r)-4-(oxetan-3-ylamino)cyclohexyl)-1H-pyrazolo[4,3-c]pyridin-3-yl)-2-fluorophenyl)-2-chlorobenzenesulfonamide], in that order: 7.82, 8.34 and 8.21.
Taken in the same sequence, the figures for `CCn1nc(-c2ccc(NS(=O)(=O)Cc3ccccc3F)c(F)c2)c2c(N)ncc([C@H]3CC[C@H](NC4COC4)CC3)c21` [Compound A53, N-(4-(4-amino-1-ethyl-7-((1r,4r)-4-(oxetan-3-ylamino)cyclohexyl)-1H-pyrazolo[4,3-c]pyridin-3-yl)-2-fluorophenyl)-1-(2-fluorophenyl)methanesulfonamide] were 8.04, 8.72 and 8.82.
`CC(C)n1nc(-c2ccc(NS(=O)(=O)Cc3ccccc3F)c(F)c2)c2c(N)ncc([C@H]3CC[C@H](NC4COC4)CC3)c21` [Compound A57, N-(4-(4-amino-1-isopropyl-7-((1r,4r)-4-(oxetan-3-ylamino)cyclohexyl)-1H-pyrazolo[4,3-c]pyridin-3-yl)-2-fluorophenyl)-1-(2-fluorophenyl)methanesulfonamide]: the results for the pIC50 (in experiment [1]; at IRE1α [2]; on IRE1α [3]) were 8.60, 9.05 and 9.40, respectively.
